Results as given in patent publication US12433903B2 (priority 2021, dated 2025).
Several values for one entry are separate records, joined by “and”; a condition that tells them apart may be missing. Equal values may be shown once.

Test: Quantification of CBG and CBG glucuronide in rat plasma and brain after oral gavage
Type: in vivo, Sprague-Dawley rat
Settings: for CBG concentration in rat plasma (Day 21) / CBG concentration in rat brain tissue (Day 21) / CBG concentration in rat plasma (Day 1): individual rats; for CBG concentration in rat brain tissue (Day 21) / CBG concentration in rat brain tissue (Day 21), Average: 24 hrs post Rx
Experimental: The purpose of this study was to quantify cannabigerol (CBG) in rat plasma and brain.
Seven- to nine-week-old male and female Sprague-Dawley received either a single dose or once daily dosing for 21 clays of vehicle or CBG at three different dosage levels as shown in the Table below.
Approximately 0.2-0.25 mL blood was collected during the first 24 hours after the single dose, and at multiple times points after the terminal dose for the animals receiving daily dosing for 21 days. Liver, kidney, and colon samples were collected and fixed in 10% NBF for 48 hours, then stored in 70% ethanol at room temperature. Brain samples were collected and flash frozen.
Analytical curves were constructed using non-zero standards with CBG concentration ranging from 0.0025 to 2.500 μg/mL and […] in blank rat plasma samples and 1.0 to 2500 ng/mL in blank brain tissues. A blank sample was used to exclude contamination.
Instrument Used: AB SCIEX QTRAP 4500/Shimadzu Prominence LC

SMILES: CCCCCc1cc(O)c(C/C=C(\C)CCC=C(C)C)c(O)c1 [CBG, cannabigerol]
- CBG concentration in rat plasma (Day 21) (CBG 10 mg/kg oral gavage once daily, 15 min post Rx): BLQ (Below Limit of Quantification (2.5 ng/mL))
- CBG concentration in rat plasma (Day 21) (CBG 10 mg/kg oral gavage once daily, 30 min post Rx): BLQ (Below Limit of Quantification (2.5 ng/mL))
- CBG concentration in rat plasma (Day 21) (CBG 10 mg/kg oral gavage once daily, 1 hr post Rx): BLQ (Below Limit of Quantification (2.5 ng/mL)) (4×) and 1.67 ng/mL and 2.75 ng/mL
- CBG concentration in rat plasma (Day 21) (CBG 10 mg/kg oral gavage once daily, 2 hr post Rx): BLQ (Below Limit of Quantification (2.5 ng/mL)) (3×) and 5.6 ng/mL and 9.5 ng/mL and 2.72 ng/mL
- CBG concentration in rat plasma (Day 21) (CBG 10 mg/kg oral gavage once daily, 4 hr post Rx): BLQ (Below Limit of Quantification (2.5 ng/mL)) (4×) and 4.73 ng/mL and 8.49 ng/mL
- CBG concentration in rat plasma (Day 21) (CBG 10 mg/kg oral gavage once daily, 8 hr post Rx): BLQ (Below Limit of Quantification (2.5 ng/mL)) (4×) and 2.55 ng/mL and 4.18 ng/mL
- CBG concentration in rat plasma (Day 21) (CBG 10 mg/kg oral gavage once daily, 24 hr post Rx): BLQ (Below Limit of Quantification (2.5 ng/mL))
- CBG concentration in rat brain tissue (Day 21) (CBG 10 mg/kg oral gavage once daily): BLQ (Below Limit of Quantification (1.0 ng/g))
- CBG concentration in rat plasma (Day 1) (CBG 10 mg/kg oral gavage once, 15 min post Rx): BLQ (Below Limit of Quantification (2.5 ng/mL))
- CBG concentration in rat plasma (Day 1) (CBG 10 mg/kg oral gavage once, 30 min post Rx): BLQ (Below Limit of Quantification (2.5 ng/mL))
- CBG concentration in rat plasma (Day 1) (CBG 10 mg/kg oral gavage once, 1 hr post Rx): 5.3 ng/mL and BLQ (Below Limit of Quantification (2.5 ng/mL)) (2×) and 18.6 ng/mL and 7.3 ng/mL
- CBG concentration in rat plasma (Day 1) (CBG 10 mg/kg oral gavage once, 2 hr post Rx): 10.7 ng/mL and BLQ (Below Limit of Quantification (2.5 ng/mL)) and 14.6 ng/mL and 11.5 ng/mL and 12.0 ng/mL
- CBG concentration in rat plasma (Day 1) (CBG 10 mg/kg oral gavage once, 4 hr post Rx): BLQ (Below Limit of Quantification (2.5 ng/mL))
- CBG concentration in rat plasma (Day 1) (CBG 10 mg/kg oral gavage once, 8 hr post Rx): BLQ (Below Limit of Quantification (2.5 ng/mL))
- CBG concentration in rat plasma (Day 1) (CBG 10 mg/kg oral gavage once, 24 hr post Rx): BLQ (Below Limit of Quantification (2.5 ng/mL))
- CBG concentration in rat plasma (Day 21) (CBG 30 mg/kg oral gavage once daily, 15 min post Rx): BLQ (Below Limit of Quantification (2.5 ng/mL)) (3×) and 14.7 ng/mL and 4.51 ng/mL and 9.12 ng/mL
- CBG concentration in rat plasma (Day 21) (CBG 30 mg/kg oral gavage once daily, 30 min post Rx): BLQ (Below Limit of Quantification (2.5 ng/mL))
- CBG concentration in rat plasma (Day 21) (CBG 30 mg/kg oral gavage once daily, 1 hr post Rx): BLQ (Below Limit of Quantification (2.5 ng/mL))
- CBG concentration in rat plasma (Day 21) (CBG 30 mg/kg oral gavage once daily, 2 hr post Rx): BLQ (Below Limit of Quantification (2.5 ng/mL))
- CBG concentration in rat plasma (Day 21) (CBG 30 mg/kg oral gavage once daily, 4 hr post Rx): BLQ (Below Limit of Quantification (2.5 ng/mL))
- CBG concentration in rat plasma (Day 21) (CBG 30 mg/kg oral gavage once daily, 8 hr post Rx): BLQ (Below Limit of Quantification (2.5 ng/mL))
- CBG concentration in rat plasma (Day 21) (CBG 30 mg/kg oral gavage once daily, 24 hr post Rx): BLQ (Below Limit of Quantification (2.5 ng/mL))
- CBG concentration in rat brain tissue (Day 21) (CBG 30 mg/kg oral gavage once daily): BLQ (Below Limit of Quantification (1.0 ng/g)) (5×) and 43.8 ng/g
- CBG concentration in rat plasma (Day 1) (CBG 30 mg/kg oral gavage once, 15 min post Rx): 3.8 ng/mL and 7.6 ng/mL and BLQ (Below Limit of Quantification (2.5 ng/mL)) (4×)
- CBG concentration in rat plasma (Day 1) (CBG 30 mg/kg oral gavage once, 30 min post Rx): 15.2 ng/mL and BLQ (Below Limit of Quantification (2.5 ng/mL)) (5×)
- CBG concentration in rat plasma (Day 1) (CBG 30 mg/kg oral gavage once, 1 hr post Rx): 22.9 ng/mL and 32.3 ng/mL and 32.5 ng/mL and 1.08 ng/mL and 31.2 ng/mL and 35.9 ng/mL
- CBG concentration in rat plasma (Day 1) (CBG 30 mg/kg oral gavage once, 2 hr post Rx): BLQ (Below Limit of Quantification (2.5 ng/mL)) (2×) and 11.0 ng/mL and 26.6 ng/mL and 78.6 ng/mL and 36.0 ng/mL
- CBG concentration in rat plasma (Day 1) (CBG 30 mg/kg oral gavage once, 4 hr post Rx): 24.5 ng/mL and BLQ (Below Limit of Quantification (2.5 ng/mL)) (2×) and 54.3 ng/mL and 62.1 ng/mL and 48.3 ng/mL
- CBG concentration in rat plasma (Day 1) (CBG 30 mg/kg oral gavage once, 8 hr post Rx): BLQ (Below Limit of Quantification (2.5 ng/mL))
- CBG concentration in rat plasma (Day 1) (CBG 30 mg/kg oral gavage once, 24 hr post Rx): BLQ (Below Limit of Quantification (2.5 ng/mL)) (5×) and 2.75 ng/mL
- CBG concentration in rat plasma (Day 21) (CBG 100 mg/kg oral gavage once daily, 15 min post Rx): BLQ (Below Limit of Quantification (2.5 ng/mL)) (4×) and 41.6 ng/mL
- CBG concentration in rat plasma (Day 21) (CBG 100 mg/kg oral gavage once daily, 30 min post Rx): BLQ (Below Limit of Quantification (2.5 ng/mL)) (3×) and 178.5 ng/mL and 122.5 ng/mL
- CBG concentration in rat plasma (Day 21) (CBG 100 mg/kg oral gavage once daily, 1 hr post Rx): BLQ (Below Limit of Quantification (2.5 ng/mL)) (3×) and 225.5 ng/mL and 206.0 ng/mL
- CBG concentration in rat plasma (Day 21) (CBG 100 mg/kg oral gavage once daily, 2 hr post Rx): 307.0 ng/mL and 201.0 ng/mL and 278.0 ng/mL and BLQ (Below Limit of Quantification (2.5 ng/mL)) and 275.5 ng/mL
- CBG concentration in rat plasma (Day 21) (CBG 100 mg/kg oral gavage once daily, 4 hr post Rx): BLQ (Below Limit of Quantification (2.5 ng/mL)) and 171.0 ng/mL and 129.5 ng/mL and 185.0 ng/mL and 905.0 ng/mL and 417.0 ng/mL
- CBG concentration in rat plasma (Day 21) (CBG 100 mg/kg oral gavage once daily, 8 hr post Rx): BLQ (Below Limit of Quantification (2.5 ng/mL)) (2×) and 215.0 ng/mL and 905.0 ng/mL and 3095.0 ng/mL and 373.0 ng/mL
- CBG concentration in rat plasma (Day 21) (CBG 100 mg/kg oral gavage once daily, 24 hr post Rx): BLQ (Below Limit of Quantification (2.5 ng/mL))
- CBG concentration in rat brain tissue (Day 21), Average (CBG 100 mg/kg oral gavage once daily, female rats): 299.27 ng/g
- CBG concentration in rat brain tissue (Day 21) (CBG 100 mg/kg oral gavage once daily): 53.0 ng/g and 108.0 ng/g and 1460.0 ng/g and 271.0 ng/g and 580.0 ng/g and 46.8 ng/g
- CBG concentration in rat brain tissue (Day 21), Average (CBG 100 mg/kg oral gavage once daily, male rats): 540.33 ng/g
- CBG concentration in rat plasma (Day 1) (CBG 100 mg/kg oral gavage once, 15 min post Rx): BLQ (Below Limit of Quantification (2.5 ng/mL))
- CBG concentration in rat plasma (Day 1) (CBG 100 mg/kg oral gavage once, 30 min post Rx): BLQ (Below Limit of Quantification (2.5 ng/mL))
- CBG concentration in rat plasma (Day 1) (CBG 100 mg/kg oral gavage once, 1 hr post Rx): BLQ (Below Limit of Quantification (2.5 ng/mL))
- CBG concentration in rat plasma (Day 1) (CBG 100 mg/kg oral gavage once, 2 hr post Rx): BLQ (Below Limit of Quantification (2.5 ng/mL))
- CBG concentration in rat plasma (Day 1) (CBG 100 mg/kg oral gavage once, 4 hr post Rx): BLQ (Below Limit of Quantification (2.5 ng/mL)) (4×) and 119.0 ng/mL and 143.0 ng/mL
- CBG concentration in rat plasma (Day 1) (CBG 100 mg/kg oral gavage once, 8 hr post Rx): BLQ (Below Limit of Quantification (2.5 ng/mL))
- CBG concentration in rat plasma (Day 1) (CBG 100 mg/kg oral gavage once, 24 hr post Rx): BLQ (Below Limit of Quantification (2.5 ng/mL))
- concentration of CBG in plasma (in words) (oral gavage 10-100 mg/kg, Day 1 and Day 21): low or below the level of quantitation (BLQ)
- CBG in brain (in words) (oral gavage, Day 21): not detected
- first pass metabolism to the glucuronide (in words) (upon oral administration): very high
